We go through 16 compounds from patent publication US9126941B2, “Treatment of hyperproliferative disorders with diarylhydantoin compounds” (The Regents of the University of California, priority 2005, dated 2015).

Holding throughout (assay): cell-based
In experiment [1] the target is T1, AR (Homo sapiens, UniProt P10275). The settings on record: for Agonistic activity on AR, reporter: LN-AR, absence of R1881; for fold induction at 0.1 µM: read-out: Fold induction of AR response reporter, 0.1 μM; for fold induction at 1 µM: read-out: Fold induction of AR response reporter, 1 μM; for fold induction at 10 µM: read-out: Fold induction of AR response reporter, 10 μM. The text has this: Table 2 lists the agonistic activities of different compounds.

Experiment [2] concerns the target T1, AR. In kind it is cell-based. The settings on record: for Agonistic activity, secreted PSA: AR over expressed LNCaP, absence of R1881; for fold induction at 0.1 µM / fold induction at 1 µM / fold induction at 10 µM: LNCaP; for fold induction at 0.1 µM: read-out: Fold induction of endogenous PSA, 0.1 μM; for fold induction at 1 µM: read-out: Fold induction of endogenous PSA, 1 μM; for fold induction at 10 µM: read-out: Fold induction of endogenous PSA, 10 μM.

Experiment [3] addresses T1, AR. Format: cell-based. The settings on record: for IC50 (nM) Reporter / Inhibitory activity on AR in reporter system: LNCaP-AR; for IC50 (nM) Reporter: 100 pM R1881, two days, No = did not inhibit AR response reporter; for Inhibitory activity on AR in reporter system: hormone refractory. As for the experimental part:
The compounds were subjected to tests using an artificial AR response reporter system in a hormone refractory prostate cancer cell line. […] After two days of incubation, reporter activities were assayed.

The target in experiment [4] is T1, AR. Format: cell-based. The settings on record: for Rank order, most active to least active, relative PSA level (FIG. 4): 500 nM; for Decrease in PSA level of LNCaP-AR cells, comparison (FIG. 4): at concentrations of 1000 nM. As for the experimental part: It is well established that PSA levels are indicators of AR activities in prostate cancer. […] The LNCaP-AR cells are a line of lymph node carcinoma of prostate cells transduced with a plasmid that makes express androgen receptors. […] After four days incubation, secreted PSA levels were assayed using PSA ELISA kits (American Qualex, San Clemente, Calif.)

Like-named read-outs stand apart in the source and are kept apart here.

T1 sequence (P10275 whole entry, looked up): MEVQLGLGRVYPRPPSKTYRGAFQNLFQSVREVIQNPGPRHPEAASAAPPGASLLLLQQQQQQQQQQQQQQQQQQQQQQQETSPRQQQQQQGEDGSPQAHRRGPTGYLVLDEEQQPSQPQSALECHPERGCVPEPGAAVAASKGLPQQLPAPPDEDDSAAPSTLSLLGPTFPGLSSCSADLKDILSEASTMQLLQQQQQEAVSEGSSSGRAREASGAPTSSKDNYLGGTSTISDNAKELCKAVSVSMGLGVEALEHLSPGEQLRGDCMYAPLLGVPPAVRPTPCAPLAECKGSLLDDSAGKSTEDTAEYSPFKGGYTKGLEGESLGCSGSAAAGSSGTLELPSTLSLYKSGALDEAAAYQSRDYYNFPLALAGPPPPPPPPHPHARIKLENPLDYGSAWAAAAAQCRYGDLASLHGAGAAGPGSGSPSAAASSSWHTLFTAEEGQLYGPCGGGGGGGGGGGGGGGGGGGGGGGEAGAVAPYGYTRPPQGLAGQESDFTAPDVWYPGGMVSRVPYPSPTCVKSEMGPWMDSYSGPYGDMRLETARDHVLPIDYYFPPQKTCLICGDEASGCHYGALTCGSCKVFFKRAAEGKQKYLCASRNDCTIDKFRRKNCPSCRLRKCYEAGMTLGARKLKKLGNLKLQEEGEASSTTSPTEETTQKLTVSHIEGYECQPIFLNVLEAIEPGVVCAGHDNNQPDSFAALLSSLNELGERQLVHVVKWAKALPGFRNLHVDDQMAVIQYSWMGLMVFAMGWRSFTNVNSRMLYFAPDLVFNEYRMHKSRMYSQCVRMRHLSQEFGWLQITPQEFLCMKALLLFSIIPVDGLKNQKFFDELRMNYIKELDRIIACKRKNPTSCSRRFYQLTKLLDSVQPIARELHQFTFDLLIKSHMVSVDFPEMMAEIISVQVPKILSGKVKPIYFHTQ

`CCNC(=S)N=C1N(c2ccc(C#N)c(C(F)(F)F)c2)C(=S)N(c2ccc(C)cc2)C1(C)C` [RD91, 1-[3-(4-cyano-3-trifluoromethyl-phenyl)-5,5-dimethyl-2-thioxo-1-p-tolyl-imidazolidin-4-ylidene]-3-ethyl-thiourea]: at AR [1], the “Agonistic activity on AR, reporter” value is on record as “no agonistic activity”; the fold induction at 0.1 µM turned out to be 1.3; the fold induction at 1 µM was 1.18; the fold induction at 10 µM is 1.28. Moreover, at AR [2], the “Agonistic activity, secreted PSA” value is “no agonistic activities”; the fold induction at 0.1 µM is 1.06; the fold induction at 1 µM is 1.3; the fold induction at 10 µM amounted to 0.85.

With `CN1C(=O)N(c2ccc(C#N)c(C(F)(F)F)c2)C(=O)C12CCCC2` [RD76, 4-(1-methyl-2,4-dioxo-1,3-diaza-spiro[4.4]non-3-yl)-2-trifluoromethylbenzonitrile], on AR [3], the “IC50 (nM) Reporter” value is reported as “No” and the “Inhibitory activity on AR in reporter system” value (“Inhibitory activity on AR” for short) was “no inhibitory activities”. On AR [4], the “IC50 (nM) PSA” value is on record as “No”. At AR [1], the “Agonistic activity on AR, reporter” value was “strongly activated AR”; the fold induction at 0.1 µM was determined as 12; the fold induction at 1 µM worked out at 19.8; the fold induction at 10 µM came to 39.

For the compound `N#Cc1ccc(N2C(=O)C3(CCCC3)NC2=S)cc1C(F)(F)F` [RD77, 4-(4-oxo-2-thioxo-1,3-diazaspiro[4.4]non-3-yl)-2-trifluoromethylbenzonitrile], at AR [3], the “IC50 (nM) Reporter” value is listed as “No” and the “Inhibitory activity on AR” value is listed as “no inhibitory activities”. The “IC50 (nM) PSA” value against AR [4] is “No”. At AR [1], the “Agonistic activity on AR, reporter” value is “strongly activated AR”; the fold induction at 0.1 µM amounted to 14.9; the fold induction at 1 µM stood at 22.5; the fold induction at 10 µM is 37.1.

With `CN1C(=S)N(c2ccc(C#N)c(C(F)(F)F)c2)C(=O)C12CCC2` [RD73, 4-(5-methyl-8-oxo-6-thioxo-5,7-diazaspiro[3.4]oct-7-yl)-2-trifluoromethylbenzonitrile, reference compound], at AR [3], the “IC50 (nM) Reporter” value is “No” and the “Inhibitory activity on AR” value was “no inhibitory activities”. At AR [4], the “IC50 (nM) PSA” value is “No”. Also, on AR [1], the “Agonistic activity on AR, reporter” value is “strongly activated AR”; the fold induction at 0.1 µM stood at 14.9; the fold induction at 1 µM turned out to be 19.4; the fold induction at 10 µM came to 35.2. Moreover, on AR [2], the “Agonistic activity, secreted PSA” value was “stimulated PSA expression”; the fold induction at 0.1 µM was 6.25; the fold induction at 1 µM came to 17.9; the fold induction at 10 µM came out at 25.6.

`Cc1ccc(N2C(=S)N(c3ccc(C#N)c(C(F)(F)F)c3)C(=O)C2(CCl)CCl)cc1` [RD67, 4-(4,4-bischloromethyl-5-oxo-2-thioxo-3-(4-methylphenyl)imidazolidin-1-yl)-2-trifluoromethylbenzonitrile]: the values for the IC50 at AR [3] and on AR [4] were 521 nM and greater than 500 nM, respectively.

Turning to `N#Cc1ccc(N2C(=O)C3(CCC3)N(c3ccc(CCC(=O)NCCO)cc3)C2=S)cc1C(F)(F)F` [RD135, 3-{4-[7-(4-cyano-3-trifluoromethylphenyl)-8-oxo-6-thioxo-5,7-diaza-spiro[3.4]oct-5-yl]-phenyl}-N-(2-hydroxyethyl)-propionamide], half-maximal inhibition at AR [3] (IC50) was put at 732 nM. For the same compound, at AR [4], the “Rank order, most active to least active, relative PSA level (FIG. 4)” value (“Rank order … relative PSA level (FIG. 4)” below) was “RD138>RD131>RD37>RD133>RD134>RD137>RD138>RD135>bicalutamide” and the “Decrease in PSA level of LNCaP-AR cells, comparison (FIG. 4)” value (shortened to “Decrease in PSA level of LNCaP-AR cells”) is reported as “greater decrease in PSA level than bicalutamide”.

As for `CC1(C)C(=S)N(c2ccc(C#N)c(C(F)(F)F)c2)C(=S)N1c1ccc(O)cc1` [RD59, 4-[3-(4-hydroxyphenyl)-4,4-dimethyl-2,5-dithioxoazolidin-1-yl]-2-trifluoromethylbenzonitrile], the IC50 was determined as 278 nM at AR [3] and 287 nM at AR [4].

Compound `CNC(=O)CCc1ccc(N2C(=S)N(c3ccc(C#N)c(C(F)(F)F)c3)C(=O)C23CCC3)cc1` [RD134, 3-{4-[7-(4-Cyano-3-trifluoromethylphenyl)-8-oxo-6-thioxo-5,7-diaza-spiro[3.4]oct-5-yl]-phenyl}-N-methyl-propionamide] yielded an IC50 against AR [3] of 234 nM. Moreover, on AR [4], the “Rank order … relative PSA level (FIG. 4)” value is “RD138>RD131>RD37>RD133>RD134>RD137>RD138>RD135>bicalutamide”; the “Decrease in PSA level of LNCaP-AR cells” value was “greater decrease in PSA level of LNCaP-AR cells than RD135 and RD137”.

Take `Cc1ccc(N2C(=S)N(c3ccc(C#N)c(C(F)(F)F)c3)C(=NC(=S)Nc3ccc(C#N)c(C(F)(F)F)c3)C23CCC3)cc1` [RD93, 1-(4-Cyano-3-trifluoromethyl-phenyl)-3-[7-(4-cyano-3-trifluoromethyl-phenyl)-6-thioxo-5-p-tolyl-5,7-diaza-spiro[3.4]oct-8-ylidene]-thiourea]: at AR [1], the “Agonistic activity on AR, reporter” value is “no agonistic activity”; the fold induction at 0.1 µM came to 1.26; the fold induction at 1 µM amounted to 1.1; the fold induction at 10 µM was 1.3. Besides, on AR [2], the “Agonistic activity, secreted PSA” value is “no agonistic activities”; the fold induction at 0.1 µM came out at 1.44; the fold induction at 1 µM stood at 1.3; the fold induction at 10 µM was determined as 1.05.

`N#Cc1ccc(N2C(=O)C3(CCC3)N(c3ccc(CCCC(N)=O)cc3)C2=S)cc1C(F)(F)F` [RD130, 4-{4-[7-(4-Cyano-3-trifluoromethylphenyl)-8-oxo-6-thioxo-5,7-diaza-spiro[3.4]oct-5-yl]-phenyl}-butyramide]: the IC50 against AR [3] was 112 nM. Besides, the “PSA level, LN/AR cell line, comparison” value at AR [4] (for a given dose / concentration) is “less than the PSA level upon exposure to RD128 and RD129”.

Regarding `Cc1ccc(N2C(=S)N(c3ccc(C#N)c(C(F)(F)F)c3)C(=NC(=S)Nc3ccccc3)C23CCC3)cc1` [RD92, 1-[7-(4-cyano-3-trifluoromethyl-phenyl)-6-thioxo-5-p-tolyl-5,7-diaza-spiro[3.4]oct-8-ylidine]-3-phenyl-thiourea], on AR [1], the “Agonistic activity on AR, reporter” value was “no agonistic activity”; the fold induction at 0.1 µM came out at 1.19; the fold induction at 1 µM is 1.41; the fold induction at 10 µM amounted to 1.17. Moreover, on AR [2], the “Agonistic activity, secreted PSA” value is on record as “no agonistic activities”; the fold induction at 0.1 µM stood at 1.31; the fold induction at 1 µM came to 1.05; the fold induction at 10 µM came to 0.9.

Consider `CC1(C)C(=O)N(c2ccc(C#N)c(C(F)(F)F)c2)C(=S)N1CCCCO` [RU 59063, 4-[3-(4-hydroxybutyl)-4,4-dimethyl-5-oxo-2-thioxoimidazolidin-1-yl]-2-trifluoromethylbenzonitrile, reference compound], for which the “IC50 (nM) Reporter” value against AR [3] is listed as “No(*)”. On AR [4], the “IC50 (nM) PSA” value is recorded as “No”. Further, on AR [1], the “Agonistic activity on AR, reporter” value is listed as “strongly activated AR”; the fold induction at 0.1 µM was determined as 11; the fold induction at 1 µM was 20.8; the fold induction at 10 µM came out at 34.6. On AR [2], the “Agonistic activity, secreted PSA” value is recorded as “stimulated PSA expression”; the fold induction at 0.1 µM amounted to 6.88; the fold induction at 1 µM was 11.5; the fold induction at 10 µM stood at 21.5.

On to `CC1(C)C(=O)N(c2ccc(C#N)c(C(F)(F)F)c2)C(=S)N1c1ccccc1C(=O)O` [RD65, 2-[3-(4-cyano-3-trifluoromethylphenyl)-5,5-dimethyl-4-oxo-2-thioxoimidazolidin-1-yl]benzoic acid], for which the IC50 against AR [3] was 523 nM; on AR [4] it was greater than 500 nM.

Turning to `Cc1ccc(N2C(=S)N(c3ccc(C#N)c(C(F)(F)F)c3)C(=O)C2(C)CF)cc1` (stereo not drawn) [RD68, 4-(4-fluoromethyl-4-methyl-5-oxo-2-thioxo-3-(4-methylphenyl)imidazolidin-1-yl)-2-trifluoromethylbenzonitrile], the IC50 against AR [3] worked out at 126 nM; against AR [4], 129 nM.

Compound `N#Cc1ccc(N2C(=O)C3(CCC3)N(c3ccc(N4CCNCC4)cc3)C2=S)cc1C(F)(F)F` [RD137, 4-[8-Oxo-5-(4-piperazin-1-yl-phenyl)-6-thioxo-5,7-diazaspiro[3,4]oct-7-yl]-2-trifluoromethylbenzonitrile] showed an IC50 against AR [3] of 718 nM. In addition, at AR [4], the “Rank order … relative PSA level (FIG. 4)” value was “RD138>RD131>RD37>RD133>RD134>RD137>RD138>RD135>bicalutamide” and the “Decrease in PSA level of LNCaP-AR cells” value is reported as “greater decrease in PSA level than bicalutamide”.

In turn, `CS(=O)(=O)N1CCN(c2ccc(N3C(=S)N(c4ccc(C#N)c(C(F)(F)F)c4)C(=O)C34CCC4)cc2)CC1` [RD138, 4-{5-[4-(4-methanesulfonylpiperazin-1-yl)-phenyl]-8-oxo-6-thioxo-5,7-diazaspiro[3.4]oct-7-yl}-2-trifluoromethylbenzonitrile] yielded an IC50 on AR [3] of 138 nM. Besides, on AR [4], the “Rank order … relative PSA level (FIG. 4)” value is given as “RD138>RD131>RD37>RD133>RD134>RD137>RD138>RD135>bicalutamide”; the “Decrease in PSA level of LNCaP-AR cells” value was “greater decrease in PSA level of LNCaP-AR cells than RD135 and RD137”.
